Tests used:
Acute toxicity = details: mouse, in vivo, po; per os, mice
Description: (3) Determination of the acute toxicity
The LD50 was evaluated after administration of the product per os in mice.

[1] = test system: total acidity of the gastric juice; test: Gastric anti-secretory activity (Shay, pylorus-ligated rats); format: in vivo, rat; details: 10 mg/kg, intraduodenally, male rats, 3 hours
Description: (1) Determination of the gastric anti-secretory activity
The technique used is described by H. Shay et al in Gastroenterology 5, 43 (1945).
Male rats were used, each having a weight of about 200 g (ten animals per lot), which had been without food for 48 hours but were allowed 8% glucose solution ad libitum. After the rats were slightly anesthetized with ether, the pylorus of each was ligated. At the end of the operation, different doses of the product to be tested, or in the case of the control animals a 0.5% carboxymethyl cellulose solution, were administered intraduodenally, whereupon the abdominal incision was sutured.
Three hours later, the animals were sacrificed and their stomachs removed after ligating the esophagus. The gastric juice was removed and centrifuged. The volume of gastric juice obtained was then measured and the total acidity of the gastric juice obtained was established by titrating a 100 μL sample of gastric juice to a pH of 7 with 1/10 N Sodium hydroxide aqueous solution. The total acidity was determined.
The percentage of variation of total acidity between the results from test animals and results from control animals were calculated.

[2] = test system: ulcers in the stomachs of rats; test: Anti-ulcer activity, stress ulcer (stress and cold); format: in vivo, rat; details: 10 mg/kg, by esophageal tube, female rats, stress at 8° C. for two hours
Description: (2) Determination of the anti-ulcer activity
The technique consists in inducing ulcers in the stomachs of rats by stress (stress and cold). The technique used is described by E. C. Senay and R. J. Levine, Proc. Soc. Ex. Biol. 124, 1221 (1967).
Female rats of 150 g (5 animals per lot) were used which had fasted for 48 hours with water ad libitum and glucose solution for 8 hours. The animals were given the test product, or a 0.5% solution of carboxymethyl cellulose in the case of the control animals, by esophageal tube. Two hours later, the animals were wrapped in a jacket of netting. Their paws were bound and the entire unit was placed in a refrigerator at 8° C. for two hours. The rats were freed and killed with ether. Their stomachs were removed, opened along the greater curvature and examined with a binocular magnifier. The seriousness of the lesions was rated from 0 to 3 for each stomach.
The average intensity of the ulcerations was calculated for each lot of rats. The difference in the degree of ulceration between test animals and control animals was determined and calculated as a percentage.

Row | Structure (SMILES) | LD50 (Acute toxicity) [mg/kg] | Anti-secretory activity (% variation as compared with the controls), Acid Concentration [1] [%] | Anti-ulcer activity (% variation as compared with the controls), Ulceration [2] [%]
1 | O=C(O)C=CC(=O)c1ccccc1O [Example 1, 4-(2-hydroxyphenyl)-4-oxobuten-2-oic acid] | 350 | -65 | -35
2 | COc1ccc(C(=O)C=CC(=O)O)cc1 [Example 2, 4-(4-methyoxyphenyl)-4-oxobuten-2-oic acid] | 500 | -66 | -73

Reference: patent US4454155A, “Pharmaceutical compositions containing a mono-substituted derivative of 4-phenyl-4-oxobuten-2-oic acid, and methods of using them in treating gastric and gastroduodenal ailments” (Roussel UCLAF, priority 1981, dated 1984)
